Data reported in ChEMBL document CHEMBL3784917, “Recent Progress in Histone Demethylase Inhibitors” (J Med Chem, 2016).
Blank lines part the entries; values can stand above or below the compound they belong to.

Assays:
[1] = target: Lysine-specific demethylase 5C (Homo sapiens, UniProt P41229)
[2] = target: T1, Lysine-specific demethylase 4C (Homo sapiens, UniProt Q9H3R0); assay: Inhibition of KDM4C (unknown origin) using H3K9me3 as substrate after 24 hrs by alphascreen assay
T1 sequence (Q9H3R0 whole entry): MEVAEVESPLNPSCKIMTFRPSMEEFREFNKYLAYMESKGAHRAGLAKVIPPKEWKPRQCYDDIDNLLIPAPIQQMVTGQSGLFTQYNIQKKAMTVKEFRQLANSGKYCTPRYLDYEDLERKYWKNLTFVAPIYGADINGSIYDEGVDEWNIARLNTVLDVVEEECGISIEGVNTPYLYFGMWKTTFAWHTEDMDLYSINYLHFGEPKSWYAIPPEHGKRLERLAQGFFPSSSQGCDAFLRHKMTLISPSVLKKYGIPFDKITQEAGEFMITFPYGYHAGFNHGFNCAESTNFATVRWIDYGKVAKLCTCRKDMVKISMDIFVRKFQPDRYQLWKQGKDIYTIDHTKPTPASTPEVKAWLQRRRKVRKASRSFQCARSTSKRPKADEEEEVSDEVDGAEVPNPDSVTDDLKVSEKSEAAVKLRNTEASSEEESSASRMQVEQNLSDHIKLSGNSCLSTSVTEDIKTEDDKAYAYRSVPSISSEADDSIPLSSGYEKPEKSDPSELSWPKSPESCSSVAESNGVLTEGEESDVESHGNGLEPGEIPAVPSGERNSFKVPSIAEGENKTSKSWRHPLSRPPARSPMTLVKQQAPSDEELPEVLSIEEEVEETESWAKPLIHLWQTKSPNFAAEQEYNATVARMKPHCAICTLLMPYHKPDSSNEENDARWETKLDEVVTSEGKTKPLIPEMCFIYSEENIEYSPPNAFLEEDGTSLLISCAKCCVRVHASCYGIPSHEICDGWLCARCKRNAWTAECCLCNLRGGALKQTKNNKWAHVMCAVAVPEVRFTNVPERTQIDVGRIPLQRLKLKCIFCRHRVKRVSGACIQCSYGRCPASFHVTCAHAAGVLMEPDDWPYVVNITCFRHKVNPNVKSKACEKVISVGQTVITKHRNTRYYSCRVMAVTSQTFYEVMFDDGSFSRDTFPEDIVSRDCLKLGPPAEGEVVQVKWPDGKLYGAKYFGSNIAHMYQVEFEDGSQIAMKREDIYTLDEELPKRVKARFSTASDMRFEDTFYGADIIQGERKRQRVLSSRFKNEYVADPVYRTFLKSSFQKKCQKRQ

[3] = target: T2, Lysine-specific demethylase 4A (Homo sapiens, UniProt O75164); assay: Inhibition of full-length FLAG-tagged KDM4A (unknown origin) expressed in human HeLa cells assessed as increase in H3K9me3 level after 24 hrs by DAPI staining based immunofuorescence assay; assay type: cell-based
T2 sequence (O75164 whole entry): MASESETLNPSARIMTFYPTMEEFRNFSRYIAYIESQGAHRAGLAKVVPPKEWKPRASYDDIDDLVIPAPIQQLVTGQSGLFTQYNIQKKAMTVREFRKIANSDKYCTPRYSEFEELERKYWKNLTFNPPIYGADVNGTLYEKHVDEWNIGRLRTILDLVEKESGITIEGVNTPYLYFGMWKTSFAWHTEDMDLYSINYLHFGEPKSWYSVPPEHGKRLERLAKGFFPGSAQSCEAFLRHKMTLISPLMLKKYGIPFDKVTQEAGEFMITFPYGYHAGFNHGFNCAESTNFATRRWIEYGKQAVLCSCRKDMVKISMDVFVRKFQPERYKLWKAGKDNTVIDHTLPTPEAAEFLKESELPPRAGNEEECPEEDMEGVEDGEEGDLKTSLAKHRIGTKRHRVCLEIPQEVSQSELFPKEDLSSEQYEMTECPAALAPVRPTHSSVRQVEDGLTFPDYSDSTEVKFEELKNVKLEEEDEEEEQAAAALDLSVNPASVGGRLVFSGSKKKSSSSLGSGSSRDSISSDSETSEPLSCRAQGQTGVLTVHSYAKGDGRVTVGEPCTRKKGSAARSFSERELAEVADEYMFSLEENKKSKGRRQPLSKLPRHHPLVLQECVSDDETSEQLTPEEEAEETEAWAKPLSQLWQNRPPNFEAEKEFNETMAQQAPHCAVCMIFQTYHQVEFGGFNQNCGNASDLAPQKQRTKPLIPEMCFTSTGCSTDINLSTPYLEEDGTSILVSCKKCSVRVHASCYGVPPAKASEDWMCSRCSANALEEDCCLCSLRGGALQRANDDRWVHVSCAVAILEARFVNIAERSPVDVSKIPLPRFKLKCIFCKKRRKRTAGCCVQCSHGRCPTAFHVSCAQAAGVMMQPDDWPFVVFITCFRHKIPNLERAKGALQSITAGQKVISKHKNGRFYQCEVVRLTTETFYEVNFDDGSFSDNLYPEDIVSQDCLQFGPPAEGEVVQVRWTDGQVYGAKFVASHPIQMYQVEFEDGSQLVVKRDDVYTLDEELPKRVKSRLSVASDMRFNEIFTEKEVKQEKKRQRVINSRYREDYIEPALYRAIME

[4] = Inhibition of FIH (unknown origin) using ankyrin peptide substrate preincubated for 5 mins followed by substrate addition measured after 5 mins MALDI-TOF mass spectrometric analysis; design: species or system Homo sapiens
[5] = target: T1, Lysine-specific demethylase 4C; assay: Inhibition of KDM4C (unknown origin) preincubated for 15 mins followed by histone substrate addition measured after 1 hr by alphascreen assay

Lysine-specific demethylase 5C, sequence (P41229 whole entry): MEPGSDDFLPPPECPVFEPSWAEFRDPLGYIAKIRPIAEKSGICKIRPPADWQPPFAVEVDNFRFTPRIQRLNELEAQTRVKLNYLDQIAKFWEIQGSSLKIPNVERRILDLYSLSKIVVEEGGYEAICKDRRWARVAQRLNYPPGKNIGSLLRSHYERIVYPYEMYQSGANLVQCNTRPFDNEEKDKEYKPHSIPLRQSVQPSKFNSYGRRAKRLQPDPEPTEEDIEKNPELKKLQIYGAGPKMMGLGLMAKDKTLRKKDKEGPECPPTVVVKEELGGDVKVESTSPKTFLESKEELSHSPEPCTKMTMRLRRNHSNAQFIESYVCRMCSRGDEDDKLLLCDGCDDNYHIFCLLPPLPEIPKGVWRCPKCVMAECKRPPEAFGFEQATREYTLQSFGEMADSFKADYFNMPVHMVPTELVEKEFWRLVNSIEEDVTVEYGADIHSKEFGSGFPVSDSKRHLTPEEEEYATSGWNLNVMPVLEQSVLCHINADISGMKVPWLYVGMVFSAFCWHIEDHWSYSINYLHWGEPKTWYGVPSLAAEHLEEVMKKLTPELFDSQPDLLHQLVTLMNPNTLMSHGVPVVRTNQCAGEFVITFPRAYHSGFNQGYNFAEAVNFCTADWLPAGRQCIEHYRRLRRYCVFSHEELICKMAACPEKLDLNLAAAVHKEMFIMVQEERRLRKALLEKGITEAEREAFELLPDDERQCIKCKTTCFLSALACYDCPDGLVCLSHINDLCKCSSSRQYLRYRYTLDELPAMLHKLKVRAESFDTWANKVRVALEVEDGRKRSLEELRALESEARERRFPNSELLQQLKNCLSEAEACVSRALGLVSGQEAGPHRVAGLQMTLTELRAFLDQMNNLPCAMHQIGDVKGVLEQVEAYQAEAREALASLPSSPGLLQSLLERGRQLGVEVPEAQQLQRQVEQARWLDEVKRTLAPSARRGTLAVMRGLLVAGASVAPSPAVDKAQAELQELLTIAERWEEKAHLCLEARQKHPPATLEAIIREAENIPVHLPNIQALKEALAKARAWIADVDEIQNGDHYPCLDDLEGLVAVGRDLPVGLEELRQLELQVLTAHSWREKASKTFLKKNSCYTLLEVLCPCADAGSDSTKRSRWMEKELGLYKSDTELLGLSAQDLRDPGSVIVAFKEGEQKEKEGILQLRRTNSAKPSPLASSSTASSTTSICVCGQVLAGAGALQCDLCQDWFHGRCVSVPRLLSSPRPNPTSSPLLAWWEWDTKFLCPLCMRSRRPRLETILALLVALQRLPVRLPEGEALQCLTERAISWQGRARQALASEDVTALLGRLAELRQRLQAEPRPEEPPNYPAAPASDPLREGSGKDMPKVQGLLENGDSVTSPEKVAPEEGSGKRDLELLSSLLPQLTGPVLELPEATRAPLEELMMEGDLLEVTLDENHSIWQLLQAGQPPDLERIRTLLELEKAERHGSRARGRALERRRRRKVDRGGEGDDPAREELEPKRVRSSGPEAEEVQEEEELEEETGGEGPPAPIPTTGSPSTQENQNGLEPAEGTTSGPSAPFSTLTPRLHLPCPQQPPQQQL

IC50 [1]: 1 µM
SMILES: CCN(CCN(C)C)C(=O)CNCc1cc(C(=O)O)ccn1

IC50 [2]: 3.9 µM
SMILES: CCCCCCCCOC(=O)c1ccc(O)c2ncccc12

EC50 [3]: 9 µM
IC50 [4]: > 100 µM
IC50 [5]: 5 µM
SMILES: Cc1ccsc1C(NC(=O)c1ccccc1)c1cc(Cl)c2cccnc2c1O (racemic)
